Data reported in patent publication US10730865B2, “Compounds for modulating aquaporins” (APOGLYX AB, priority 2016, dated 2020).

Target: human aquaporin 9 (Homo sapiens (Human), UniProt O43315)
Assay: Calcein quenching fluostar assay (inhibition of human aquaporin 9)
Type: cell-based
Conditions: Human AQP9 cell line; example compounds used as 1 mM stock solutions in DMSO
Method: Calcein Quenching Fluostar Assay
A calcein quenching fluostar assay was performed in order to investigate the biological activity of the newly synthesized examples 1 to 57. This type of assay is disclosed in J. Biol. Chem., 2011, 286, 44319-44325 and Am. J. Physiol. Renal Physiol. (2010), 298, F224-230.
1) Two days prior to commencement of the assay, seed 10,000 cells/well of 96 well black clear bottom plate (Greiner Poly-lysin plate). A 1:1 mix of Dulbecco's Modified Eagle's Medium: Nutrient Mixture F-12 (DMEM: F12) was obtained from Gibco. Tetracycline stock of 5 mg/ml in 96% ethanol is used. Medium: DMEM/F12/10% Donor Bovine Serum, Human AQP9 cell line+1:270,000 tetracyclin, mouse AQP9 cell line+1:2,700,000 tetracycline.
2) Day of assay: Flick/slam off the medium and add 50 μl/well of loading solution: 5 ml DMEM/F12/10% Donor Bovine Serum, 25 μl Calcein AM—from freshly dissolved aliquot in 50 μl DMSO (VWR #734-1434), and 100 μl Probenecid.
3) Incubate the well for 90 minutes at 37° C.
4) Perform one wash with 75 μl wash buffer.
5) Add 75 μl of an example compound prepared in wash buffer per well.
Example compounds are prepared in 500 μl U bottom PP plates (NUNC). 2.7 μl Substance in DMSO are added to row A; 180 μl of wash buffer+1% DMSO are added to rows B—H. 90 μl from row A are transferred and mixed with all other wells (up to row G) to make a 3-fold dilution series.
6) Assay in FLUOstar Optima at 25° C. Settings buffer addition at 135 μl/seconds, add 75 μl/well, record time course for 30 seconds, add sucrose buffer 3.6 seconds into recording.
7) Normalization to initial in Excel.
8) Fit to “exponential decay” function in GraphPad Prism 5.0, then arrange half live shrinking values according to wells and fit dose-response curves.

Chain of human aquaporin 9 (O43315 whole entry): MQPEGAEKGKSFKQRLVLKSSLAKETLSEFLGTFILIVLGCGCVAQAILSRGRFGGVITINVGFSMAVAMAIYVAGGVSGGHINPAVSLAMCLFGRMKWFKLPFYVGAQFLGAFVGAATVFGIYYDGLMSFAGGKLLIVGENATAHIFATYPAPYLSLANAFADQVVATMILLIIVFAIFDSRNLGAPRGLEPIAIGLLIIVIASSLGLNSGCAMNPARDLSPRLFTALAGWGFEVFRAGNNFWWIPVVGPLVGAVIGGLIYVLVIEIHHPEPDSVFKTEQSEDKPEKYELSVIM

Q: How did the EC50 turn out when `CCc1nnc(SCC(=O)Nc2nnc(-c3ccc4c(c3)CCO4)s2)n1CC` [Example 18, 2-[(diethyl-4H-1,2,4-triazol-3-yl)sulfanyl]-N-[5-(2,3-dihydro-1-benzofuran-5-yl)-1,3,4-thiadiazol-2-yl]acetamide] was run?
A: 124 nM

Q: What about the pEC50 in the inhibition of human aquaporin 9 of the same compound?
A: 6.9

Q: `CCc1nnc(SCC(=O)Nc2nnc(-c3ccc(OC)cc3)s2)n1C1CC1` [Example 36, 2-[(4-cyclopropyl-5-ethyl-4H-1,2,4-triazol-3-yl)sulfanyl]-N-[5-(4-methoxyphenyl)-1,3,4-thiadiazol-2-yl]acetamide] was tested. Which EC50 did it give?
A: 51 nM

Q: And the pEC50 in the inhibition of human aquaporin 9?
A: 7.3

Q: Which EC50 does the source give for `CCOc1ccc(-c2nnc(NC(=O)CSc3nnc(C(C)C)n3CC)s2)cc1` [Example 27, N-[5-(4-ethoxyphenyl)-1,3,4-thiadiazol-2-yl]-2-{[4-ethyl-5-(propan-2-yl)-4H-1,2,4-triazol-3-yl]sulfanyl}acetamide] here?
A: 69 nM

Q: For `CCOc1ccc(-c2nnc(NC(=O)CSc3nnc(CC)n3CC)s2)cc1` [Example 25, 2-[(diethyl-4H-1,2,4-triazol-3-yl)sulfanyl]-N-[5-(4-ethoxyphenyl)-1,3,4-thiadiazol-2-yl]acetamide], which EC50 is on record?
A: 42 nM

Q: For `CCCCc1ccc(-c2nnc(NC(=O)CSc3nnc(CC)n3CC)s2)cc1` [Example 16, 2-[(diethyl-4H-1,2,4-triazol-3-yl)sulfanyl]-N-[5-(4-butylphenyl)-1,3,4-thiadiazol-2-yl]acetamide], which EC50 is on record?
A: 179 nM

Q: How did the EC50 turn out when `CCc1nnc(SCC(=O)Nc2nnc(-c3ccc(S(C)(=O)=O)cc3)s2)n1C(C)C` [Example 42, 2-[(5-ethyl-4-isopropyl-4H-1,2,4-triazol-3-yl)sulfanyl]-N-[5-(4-(methylsulfonyl)phenyl)-1,3,4-thiadiazol-2-yl]acetamide] was run?
A: 76 nM

Q: What about the pEC50 in the inhibition of human aquaporin 9 of the same compound?
A: 7.1

Q: How did the EC50 turn out when `CCc1nnc(SCC(=O)Nc2nnc(-c3ccc(Cl)cc3)s2)n1CC` [Example 35, N-[5-(4-chlorophenyl)-1,3,4-thiadiazol-2-yl]-2-[(4,5-diethyl-4H-1,2,4-triazol-3-yl)sulfanyl]acetamide] was run?
A: 54 nM

Q: Which EC50 does the source give for `CCc1nnc(SCC(=O)Nc2nnc(-c3ccc(C#N)cc3)s2)n1CC` [Example 32, N-[5-(4-cyanophenyl)-1,3,4-thiadiazol-2-yl]-2-[(4,5-diethyl-4H-1,2,4-triazol-3-yl)sulfanyl]acetamide] here?
A: 43 nM

Q: What does the source list for `CCn1c(CCOC)nnc1SCC(=O)Nc1nnc(-c2ccc(OC(C)C)cc2)s1` [Example 23, 2-{[4-ethyl-5-(2-methoxyethyl)-4H-1,2,4-triazol-3-yl]sulfanyl}-N-{5-[4-(propan-2-yloxy)phenyl]-1,3,4-thiadiazol-2-yl}acetamide]?
A: EC50: 39 nM; pEC50 in the inhibition of human aquaporin 9: 7.4

Q: Which EC50 does the source give for `CCc1nnc(SCC(=O)Nc2nnc(-c3ccc(C(C)C)cc3)s2)n1CC` [Example 20, 2-[(diethyl-4H-1,2,4-triazol-3-yl)sulfanyl]-N-{5-[4-(propan-2-yl)phenyl]-1,3,4-thiadiazol-2-yl}acetamide] here?
A: 79 nM

Q: What about the pEC50 in the inhibition of human aquaporin 9 of the same compound?
A: 7.1

Q: With `CCc1nnc(SCC(=O)Nc2nnc(-c3ccc(OC)cc3)s2)n1CCOC` [Example 46, 2-[(5-ethyl-4-(2-methoxyethyl)-4H-1,2,4-triazol-3-yl)sulfanyl]-N-[5-(4-methoxyphenyl)-1,3,4-thiadiazol-2-yl]acetamide] as the compound, how does the EC50 read?
A: 112 nM

Q: For `CCc1nnc(SCC(=O)Nc2nnc(-c3ccc(S(C)(=O)=O)cc3)s2)n1C` [Example 41, 2-[(5-ethyl-4-methyl-4H-1,2,4-triazol-3-yl)sulfanyl]-N-[5-(4-(methylsulfonyl)phenyl)-1,3,4-thiadiazol-2-yl]acetamide], which EC50 is on record?
A: 490 nM

Q: And the pEC50 in the inhibition of human aquaporin 9?
A: 6.3

Q: Which EC50 does the source give for `CCc1nnc(SCC(=O)Nc2nnc(-c3ccc(OC)cc3)s2)n1CCCO` [Example 40, 2-[(5-ethyl-4-(3-hydroxypropyl)-4H-1,2,4-triazol-3-yl)sulfanyl]-N-[5-(4-methoxyphenyl)-1,3,4-thiadiazol-2-yl]acetamide] here?
A: 168 nM

Q: What does the source list for `CCCc1ccc(-c2nnc(NC(=O)CSc3nnc(CCOC)n3CC)s2)cc1` [Example 24, 2-{[4-ethyl-5-(2-methoxyethyl)-4H-1,2,4-triazol-3-yl]sulfanyl}-N-[5-(4-propylphenyl)-1,3,4-thiadiazol-2-yl]acetamide]?
A: EC50: 41 nM; pEC50 in the inhibition of human aquaporin 9: 7.4

Q: How did the EC50 turn out when `CCn1c(SCC(=O)Nc2nnc(-c3ccc(OCCF)cc3)s2)nnc1C(C)C` [Example 28, 2-{[4-ethyl-5-(propan-2-yl)-4H-1,2,4-triazol-3-yl]sulfanyl}-N-{5-[4-(2-fluoroethoxy)phenyl]-1,3,4-thiadiazol-2-yl}acetamide] was run?
A: 44 nM

Q: `CCn1c(SCC(=O)Nc2nnc(-c3ccc(OCCOC)cc3)s2)nnc1C(C)C` [Example 31, 2-{[4-ethyl-5-(propan-2-yl)-4H-1,2,4-triazol-3-yl]sulfanyl}-N-{5-[4-(2-methoxyethoxy)phenyl]-1,3,4-thiadiazol-2-yl}acetamide] was tested. Which EC50 did it give?
A: 37 nM

Q: `CCn1c(Cc2cccc(F)c2)nnc1SCC(=O)Nc1nnc(-c2ccc(OC)cc2)s1` [Example 37, 2-[(4-ethyl-5-(3-fluorobenzyl)-4H-1,2,4-triazol-3-yl)sulfanyl]-N-[5-(4-methoxyphenyl)-1,3,4-thiadiazol-2-yl]acetamide] was tested. Which EC50 did it give?
A: 132 nM

Q: What about the pEC50 in the inhibition of human aquaporin 9 of the same compound?
A: 6.9

Q: `CCc1nnc(SCC(=O)Nc2nnc(-c3ccc(OC)cc3)s2)n1C` [Example 10, 2-[(5-ethyl-4-methyl-4H-1,2,4-triazol-3-yl)sulfanyl]-N-[5-(4-methoxyphenyl)-1,3,4-thiadiazol-2-yl]acetamide] was tested. Which EC50 did it give?
A: 101 nM

Q: What about the pEC50 in the inhibition of human aquaporin 9 of the same compound?
A: 7

Q: With `CCn1c(SCC(=O)Nc2nnc(-c3ccc(OCCOC)cc3)s2)nnc1C1CC1` [Example 43, 2-[(5-cyclopropyl-4-ethyl-4H-1,2,4-triazol-3-yl)sulfanyl]-N-[5-(4-(2-methoxyethoxy)phenyl)-1,3,4-thiadiazol-2-yl]acetamide] as the compound, how does the EC50 read?
A: 52 nM

Q: For `CCc1nnc(SCC(=O)Nc2nnc(-c3ccc(S(C)(=O)=O)cc3)s2)n1CC` [Example 8, 2-[(diethyl-4H-1,2,4-triazol-3-yl)sulfanyl]-N-[5-(4-methanesulfonylphenyl)-1,3,4-thiadiazol-2-yl]acetamide], which EC50 is on record?
A: 66 nM

Q: What about the pEC50 in the inhibition of human aquaporin 9 of the same compound?
A: 7.2

Q: How did the EC50 turn out when `CCc1nnc(SCC(=O)Nc2nnc(-c3ccc(OC)cc3)s2)n1-c1ccccc1` [Example 1, 2-[(5-ethyl-4-phenyl-4H-1,2,4-triazol-3-yl)sulfanyl]-N-[5-(4-methoxyphenyl)-1,3,4-thiadiazol-2-yl]acetamide] was run?
A: 173 nM

Q: For `CCc1nnc(SCC(=O)Nc2nnc(-c3ccc(OCC(C)C)cc3)s2)n1CC` [Example 13, 2-[(diethyl-4H-1,2,4-triazol-3-yl)sulfanyl]-N-{5-[4-(2-methylpropoxy)phenyl]-1,3,4-thiadiazol-2-yl}acetamide], which EC50 is on record?
A: 101 nM

Q: And the pEC50 in the inhibition of human aquaporin 9?
A: 7

Q: Which results are given for `COc1ccc(-c2nnc(NC(=O)CSc3nnc(C)n3-c3ccccc3)s2)cc1` [Example 11, N-[5-(4-methoxyphenyl)-1,3,4-thiadiazol-2-yl]-2-[(5-methyl-4-phenyl-4H-1,2,4-triazol-3-yl)sulfanyl]acetamide]?
A: EC50: 394 nM; pEC50 in the inhibition of human aquaporin 9: 6.4

Q: `CCc1nnc(SCC(=O)Nc2nnc(-c3ccc(OC)cc3)s2)n1CC` [Example 2, 2-[(diethyl-4H-1,2,4-triazol-3-yl)sulfanyl]-N-[5-(4-methoxyphenyl)-1,3,4-thiadiazol-2-yl]acetamide] was tested. Which EC50 did it give?
A: 59 nM

Q: Which EC50 does the source give for `CCn1c(SCC(=O)Nc2nnc(-c3ccc(S(C)(=O)=O)cc3)s2)nnc1C1CC1` [Example 7, 2-[(5-cyclopropyl-4-ethyl-4H-1,2,4-triazol-3-yl)sulfanyl]-N-[5-(4-methanesulfonylphenyl)-1,3,4-thiadiazol-2-yl]acetamide] here?
A: 105 nM

Q: And the pEC50 in the inhibition of human aquaporin 9?
A: 7

Q: `CCn1c(SCC(=O)Nc2nnc(-c3ccc(S(C)(=O)=O)cc3)s2)nnc1C1CCCC1` [Example 45, (2-[(5-cyclopentyl-4-ethyl-4H-1,2,4-triazol-3-yl)sulfanyl]-N-[5-(4-methanesulfonylphenyl)-1,3,4-thiadiazol-2-yl]acetamide)] was tested. Which EC50 did it give?
A: 40 nM

Q: Which EC50 does the source give for `CCc1nnc(SCC(=O)Nc2nnc(-c3ccc(OCCOC)cc3)s2)n1CC` [Example 30, 2-[(diethyl-4H-1,2,4-triazol-3-yl)sulfanyl]-N-{5-[4-(2-methoxyethoxy)phenyl]-1,3,4-thiadiazol-2-yl}acetamide] here?
A: 21 nM

Q: Which EC50 does the source give for `CCc1nnc(SCC(=O)Nc2nnc(-c3ccc(OCCF)cc3)s2)n1CC` [Example 26, 2-[(diethyl-4H-1,2,4-triazol-3-yl)sulfanyl]-N-{5-[4-(2-fluoroethoxy)phenyl]-1,3,4-thiadiazol-2-yl}acetamide] here?
A: 43 nM

Q: `CCc1nnc(SCC(=O)Nc2nnc(-c3ccccc3)s2)n1CC` [Example 17, 2-[(diethyl-4H-1,2,4-triazol-3-yl)sulfanyl]-N-(5-phenyl-1,3,4-thiadiazol-2-yl)acetamide] was tested. Which EC50 did it give?
A: 127 nM

Q: And the pEC50 in the inhibition of human aquaporin 9?
A: 6.9
